According to paper PMC11033320, “Activation of p53 signaling and regression of breast and prostate carcinoma cells by spirooxindole-benzimidazole small molecules” (Frontiers in Pharmacology, 2024):

Experiments:
[1] = tested on: HOP-92; test: NCI anticancer screening, Non-Small Cell Lung Cancer HOP-92; type: cell-based; conditions: Homo sapiens; HOP-92, 10 μM; read-out: % Growth Inhibition (GI %)
Source text: (§1) The compound has been processed according to standard method NCI-60 Human Tumor Cell Lines Screen for organic compound at development therapeutic program (DTP). Requests for access to this national resource can be submitted online at: […]

[2] = tested on: SK-OV-3; test: NCI anticancer screening, Ovarian Cancer SK-OV-3; type: cell-based; conditions: Homo sapiens; SK-OV-3, 10 μM; read-out: % Growth Inhibition (GI %)
Source text: as §1

[3] = tested on: T-47D; test: NCI anticancer screening, Breast Cancer T-47D; type: cell-based; conditions: Homo sapiens, T47D, read-out: % Growth Inhibition (GI %)
Source text: as §1

[4] = tested on: SK-MEL-2; test: NCI anticancer screening, Melanoma SK-MEL-2; type: cell-based; conditions: Homo sapiens; SK-MEL-2, 10 μM; read-out: % Growth Inhibition (GI %)
Source text: as §1

[5] = tested on: NCI-H322M; test: NCI anticancer screening, Non-Small Cell Lung Cancer NCI-H322M; type: cell-based; conditions: Homo sapiens, read-out: % Growth Inhibition (GI %)
Source text: as §1

[6] = tested on: U251; test: NCI anticancer screening, CNS Cancer U251; type: cell-based; conditions: Homo sapiens, U-251; U251, 10 μM; read-out: % Growth Inhibition (GI %)
Source text: as §1

[7] = tested on: ACHN; test: NCI anticancer screening, Renal Cancer ACHN; type: cell-based; conditions: Homo sapiens, read-out: % Growth Inhibition (GI %)
Source text: as §1

[8] = tested on: HT29; test: NCI anticancer screening, Colon Cancer HT29; type: cell-based; conditions: Homo sapiens, HT-29; HT29, 10 μM; read-out: % Growth Inhibition (GI %)
Source text: as §1

[9] = tested on: SF-268; test: NCI anticancer screening, CNS Cancer SF-268; type: cell-based; conditions: Homo sapiens; SF-268, 10 μM; read-out: % Growth Inhibition (GI %)
Source text: as §1

[10] = tested on: UACC-62; test: NCI anticancer screening, Melanoma UACC-62; type: cell-based; conditions: Homo sapiens; UACC-62, 10 μM; read-out: % Growth Inhibition (GI %)
Source text: as §1

[11] = tested on: NCI/ADR-RES; test: NCI anticancer screening, Ovarian Cancer NCI/ADR-RES; type: cell-based; conditions: Homo sapiens, read-out: % Growth Inhibition (GI %)
Source text: as §1

[12] = tested on: SNB-19; test: NCI anticancer screening, CNS Cancer SNB-19; type: cell-based; conditions: Homo sapiens; SNB-19, 10 μM; read-out: % Growth Inhibition (GI %)
Source text: as §1

[13] = tested on: OVCAR-5; test: NCI anticancer screening, Ovarian Cancer OVCAR-5; type: cell-based; conditions: Homo sapiens; OVCAR-5, 10 μM; read-out: % Growth Inhibition (GI %)
Source text: as §1

[14] = tested on: 786-0; test: NCI anticancer screening, Renal Cancer 786-0; type: cell-based; conditions: Homo sapiens; 786-0, 10 μM; read-out: % Growth Inhibition (GI %)
Source text: as §1

[15] = target: T1, Mdm2 (residues 1–118 T47W) (Homo sapiens, UniProt Q00987, T47W); test: MDM2 binding by microscale thermophoresis (MST)
T1 construct: Mdm2 (residues 1–118 T47W; 500 nM)
T1 sequence (Q00987 1-118 T47W): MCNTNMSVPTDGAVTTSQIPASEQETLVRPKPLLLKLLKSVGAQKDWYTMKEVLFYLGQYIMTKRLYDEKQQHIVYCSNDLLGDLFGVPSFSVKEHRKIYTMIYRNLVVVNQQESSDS
Description: MST is a complementary biophysical assay to assess the binding of a small molecule to its receptor. […] Experiments were performed in 50 mM phosphate buffer at pH 7.4 containing 150 mM NaCl, 5 mM DTT, and 5% DMSO. […] Kd values and uncertainties were calculated using the MO Affinity Analysis software.

[16] = tested on: OVCAR-8; test: NCI anticancer screening, Ovarian Cancer OVCAR-8; type: cell-based; conditions: Homo sapiens; OVCAR-8, 10 μM; read-out: % Growth Inhibition (GI %)
Source text: as §1

[17] = tested on: SF-295; test: NCI anticancer screening, CNS Cancer SF-295; type: cell-based; conditions: Homo sapiens; SF-295, 10 μM; read-out: % Growth Inhibition (GI %)
Source text: as §1

[18] = tested on: IGROV1; test: NCI anticancer screening, Ovarian Cancer IGROV1; type: cell-based; conditions: Homo sapiens, IGROV-1; IGROV1, 10 μM; read-out: % Growth Inhibition (GI %)
Source text: as §1

[19] = tested on: NCI-H23; test: NCI anticancer screening, Non-Small Cell Lung Cancer NCI-H23; type: cell-based; conditions: Homo sapiens; NCI-H23, 10 μM; read-out: % Growth Inhibition (GI %)
Source text: as §1

[20] = tested on: A498; test: NCI anticancer screening, Renal Cancer A498; type: cell-based; conditions: Homo sapiens; A498, 10 μM; read-out: % Growth Inhibition (GI %)
Source text: as §1

[21] = tested on: COLO 205; test: NCI anticancer screening, Colon Cancer COLO 205; type: cell-based; conditions: Homo sapiens; COLO 205, 10 μM; read-out: % Growth Inhibition (GI %)
Source text: as §1

[22] = tested on: BT-549; test: NCI anticancer screening, Breast Cancer BT-549; type: cell-based; conditions: Homo sapiens; BT-549, 10 μM; read-out: % Growth Inhibition (GI %)
Source text: as §1

[23] = tested on: SK-MEL-28; test: NCI anticancer screening, Melanoma SK-MEL-28; type: cell-based; conditions: Homo sapiens; SK-MEL-28, 10 μM; read-out: % Growth Inhibition (GI %)
Source text: as §1

[24] = tested on: HCT-116; test: NCI anticancer screening, Colon Cancer HCT-116; type: cell-based; conditions: Homo sapiens; HCT-116, 10 μM; read-out: % Growth Inhibition (GI %)
Source text: as §1

[25] = tested on: TK-10; test: NCI anticancer screening, Renal Cancer TK-10; type: cell-based; conditions: Homo sapiens; TK-10, 10 μM; read-out: % Growth Inhibition (GI %)
Source text: as §1

[26] = tested on: DU-145; test: NCI anticancer screening, DU-145; type: cell-based; conditions: Homo sapiens; DU-145, 10 μM; read-out: % Growth Inhibition (GI %)
Source text: as §1

[27] = tested on: MDA-MB 231 cells; conditions: for inhibition: 5 µM
Description: Anticancer effect of the above-mentioned compounds was assayed using three human cancer cell lines. Triple negative breast cancer cell line (MDA-MB 231) and prostate cancer cell line (PC3) were cultured in DMEM (Lonza, USA) supplemented with 10% FBS. All cancer cells (4x10^3 cells/well) were seeded in sterile 96-well plates. After 24h, serial concentrations of the tested compounds were incubated with three cancer cell lines for 72 h at 37 °C in 5% CO2 incubator. […] The half maximal inhibitory concentration (IC50) values were calculated using the Graphpad Instat software.

[28] = tested on: HS 578T; test: NCI anticancer screening, Breast Cancer HS 578T; type: cell-based; conditions: Homo sapiens, read-out: % Growth Inhibition (GI %)
Source text: as §1

[29] = tested on: CNS cancer cells (SF-268, SF-295, SF-539, SNB-19, SNB-75, U251); test: NCI anticancer screening, CNS cancer subpanel; type: cell-based, human
Source text: as §1

[30] = tested on: NCI-H226; test: NCI anticancer screening, Non-Small Cell Lung Cancer NCI-H226; type: cell-based; conditions: Homo sapiens; NCI-H226, 10 μM; read-out: % Growth Inhibition (GI %)
Source text: as §1

[31] = tested on: leukemia cells (CCRF-CEM; HL-60 (TB); K-562; MOLT-4; RPMI-8226, SR); test: NCI anticancer screening, leukemia subpanel; type: cell-based, human; conditions: smaller GI% than the other compounds
Source text: as §1

Structure (SMILES)	inhibition at 10 µM [1]	inhibition at 10 µM [3]	inhibition at 10 µM [4]	inhibition at 10 µM [5]	inhibition at 10 µM [6]	inhibition at 10 µM [7]	inhibition at 10 µM [8]	inhibition at 10 µM [9]	inhibition at 10 µM [10]	inhibition at 10 µM [11]	inhibition at 10 µM [12]	inhibition at 10 µM [13]	inhibition at 10 µM [14]	inhibition at 10 µM [16]	inhibition at 10 µM [17]	inhibition at 10 µM [18]	inhibition at 10 µM [19]	inhibition at 10 µM [22]	inhibition at 10 µM [23]	inhibition at 10 µM [24]	also measured
O=C(c1nc2ccccc2[nH]1)[C@H]1[C@H](c2cccs2)C2CSCN2[C@]12C(=O)Nc1ccccc12 (stereo partly drawn) [Compound 6e, (3S,6′R)-6'-(1H-Benzo [d]imidazole-2-carbonyl)-7'-(thiophen-2-yl)-3′,6′,7′,7a′-tetrahydro-1′H-spiro [indoline-3.5′-pyrrolo [1,2-c]thiazol]-2-one]	105%	90.5%	111%	97.7%	100%	103%	101%	92.4%	90.8%	102%	104%	96.2%	100%	96.8%	92.6%	89.7%	103%	94.1%	105%	96.3%	inhibition at 10 µM [2]: 101%; Kd [15]: 113 µM; inhibition at 10 µM [20]: 79.7%; inhibition at 10 µM [21]: 112%; inhibition at 10 µM [25]: 106%; inhibition at 10 µM [26]: 109%; IC50 [27]: 5.61 µM; inhibition [27]: 58.2 ± 1.85%; inhibition at 10 µM [28]: 101%
O=C(c1nc2ccccc2[nH]1)[C@H]1[C@H](c2ccc(Cl)cc2Cl)C2CSCN2[C@]12C(=O)Nc1ccccc12 (stereo partly drawn) [Compound 6g, (3S,6′R)-6'-(1H-Benzo [d]imidazole-2-carbonyl)-7'-(2,4-dichlorophenyl)-3′,6′,7′,7a′-tetrahydro-1′H-spiro [indoline-3.5′-pyrrolo [1,2-c]thiazol]-2-one]	77.6%	54.4%	84.4%	79.5%	79%	63.7%	61.9%	47%	57%	68.4%	70.1%	86.1%	85.9%	77%	63.7%	54.8%	85.4%	92.3%	78.3%	56.4%	growth inhibition in CNS cancer cells [29]: less than 80%; inhibition at 10 µM [30]: 61.8%; GI% for MOLT-4, RPMI-8226, and SR cancer cells [31]: 75%; inhibition at 10 µM [25]: 107%; inhibition at 10 µM [26]: 86.9%; IC50 [27]: 6.22 µM; inhibition [27]: 56.7 ± 0.87%; inhibition at 10 µM [28]: 65.1%
O=C(c1nc2ccccc2[nH]1)[C@H]1[C@H](c2ccc(Br)cc2)C2CSCN2[C@]12C(=O)Nc1ccccc12 (stereo partly drawn) [Compound 6l, (3S,6′R)-6'-(1H-Benzo [d]imidazole-2-carbonyl)-7'-(4-bromophenyl)-3′,6′,7′,7a′-tetrahydro-1′H-spiro [indoline-3.5′-pyrrolo [1,2-c]thiazol]-2-one]	96.9%	54.7%	107%	89.9%	75.8%	74.6%	80.2%	71.5%	70.5%	83.2%	67%	95.9%	91.5%	89.8%	63.9%	63.6%	75%	90.2%	84.8%	59.2%	growth inhibition in CNS cancer cells [29]: less than 80%; inhibition at 10 µM [30]: 74.8%; GI% for MOLT-4, RPMI-8226, and SR cancer cells [31]: 75%; Kd [15]: 49.9 µM; inhibition at 10 µM [25]: 145%; inhibition at 10 µM [26]: 97.1%; IC50 [27]: 4.51 ± 0.203 µM; inhibition [27]: 53.59 ± 0.109%; inhibition at 10 µM [28]: 67.6%
